Assay results published in BindingDB's records for doi:10.7270/Q2251GJ9 (The Scripps Research Institute Molecular Screening Center, 2007).
Structures can show the parent of a compound that is named as a salt.

target: Sphingosine 1-phosphate receptor 1 (Homo sapiens, UniProt P21453); experiment: direct activation of human S1P1 – cell-based, agonist mode, 60K MLSMR set, dose response (AID 468); details: not given
Sequence (P21453 whole entry): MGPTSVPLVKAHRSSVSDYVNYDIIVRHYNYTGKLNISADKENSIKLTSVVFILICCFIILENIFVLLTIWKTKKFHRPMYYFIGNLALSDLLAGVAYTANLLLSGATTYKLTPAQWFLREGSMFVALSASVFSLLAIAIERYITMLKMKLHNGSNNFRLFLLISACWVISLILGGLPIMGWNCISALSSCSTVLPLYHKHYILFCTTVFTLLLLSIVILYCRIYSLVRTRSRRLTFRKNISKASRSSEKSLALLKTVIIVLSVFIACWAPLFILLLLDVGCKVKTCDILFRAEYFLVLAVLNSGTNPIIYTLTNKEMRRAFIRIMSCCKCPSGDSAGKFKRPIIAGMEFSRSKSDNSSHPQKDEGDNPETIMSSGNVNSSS

Row | SMILES | EC50 [µM]
1 | COc1ccc2[nH]c(=O)c3c(c2c1)OC(C)(C)C=C3 | 4.51
2 | COc1ccc(/N=c2\scc(-c3ccc(S(=O)(=O)N4CCOCC4)cc3)n2CCCO)cc1 [3-[(2Z)-2-[(4-methoxyphenyl)imino]-4-[4-(morpholin-4-ylsulfonyl)phenyl]-1,3-thiazol-3(2H)-yl]propan-1-ol] | 13.2
3 | Cn1c(-c2c(N)n(C3CCCC3)c3nc4ccccc4nc23)nc2ccccc21 [1-cyclopentyl-3-(1-methyl-2-benzimidazolyl)-2-pyrrolo[3,2-b]quinoxalinamine] | 1.15
4 | Cc1ccccc1-n1c(SCC(=O)c2cc(C)n(C)c2C)nnc1-c1ccncc1 [2-[[4-(2-methylphenyl)-5-pyridin-4-yl-1,2,4-triazol-3-yl]sulfanyl]-1-(1,2,5-trimethylpyrrol-3-yl)ethanone] | 10
5 | Nc1nonc1C(=O)NCCNCc1cc(Br)ccc1OCc1ccc(F)cc1 [4-amino-N-[2-[[5-bromo-2-(4-fluorobenzyl)oxy-benzyl]amino]ethyl]furazan-3-carboxamide;hydrochloride] | 6.9
6 | COc1ccccc1-c1nc(-c2cccc(C)c2)no1 [5-(2-methoxyphenyl)-3-(3-methylphenyl)-1,2,4-oxadiazole] | 1.34
7 | C=CCn1c(C)cc(C(=O)CSc2nc3ccccc3o2)c1C [1-(1-allyl-2,5-dimethyl-pyrrol-3-yl)-2-(1,3-benzoxazol-2-ylthio)ethanone] | 9.52
8 | Cc1cc(C(=O)CSc2nnnn2-c2ccc(O)cc2)c(C)n1Cc1ccc2c(c1)OCO2 [1-(2,5-dimethyl-1-piperonyl-pyrrol-3-yl)-2-[[1-(4-hydroxyphenyl)tetrazol-5-yl]thio]ethanone] | 5.91
9 | CCCc1ccc(OCc2nc(-c3ccc(NC(=O)c4ccco4)cc3)no2)cc1 [MLS000097352] | 4.39
10 | CCCc1cc(C(=O)N2CCN(C(c3ccccc3)c3ccccc3)CC2)no1 [(4-benzhydrylpiperazin-1-yl)-(5-propyl-1,2-oxazol-3-yl)methanone] | 8.01
11 | CCCOC(=O)c1ccc(OCC(O)Cn2c(C)nc3ccccc32)cc1 (stereo unspecified) [4-[2-hydroxy-3-(2-methyl-1-benzimidazolyl)propoxy]benzoic acid propyl ester] | 8.15
12 | O=C(CCc1nc(-c2ccccc2F)no1)Nc1ccc(Oc2ccccc2)cc1 [3-[3-(2-fluorophenyl)-1,2,4-oxadiazol-5-yl]-N-(4-phenoxyphenyl)propanamide] | 4.94
13 | Cc1nnc(SC(=O)N2c3ccccc3Sc3ccccc32)s1 [10-phenothiazinecarbothioic acid S-(5-methyl-1,3,4-thiadiazol-2-yl) ester] | 3.57
14 | CCOC(=O)C1CCN(c2ncnc3c2oc2ccc(Cl)cc23)CC1 [1-(8-chloro-4-benzofuro[3,2-d]pyrimidinyl)-4-piperidinecarboxylic acid ethyl ester] | > 95
15 | O=C(c1ccccc1)C(CCC(CN1CCOCC1)C(=O)c1ccccc1)CN1CCOCC1 (stereo unspecified) [2,5-bis(4-morpholinylmethyl)-1,6-diphenylhexane-1,6-dione;hydrochloride] | 4.8
16 | Cc1noc(/C=C/N(C)C)c1S(=O)(=O)N1CCN(c2ccccc2)CC1 [(E)-N,N-dimethyl-2-[3-methyl-4-(4-phenylpiperazin-1-yl)sulfonyl-1,2-oxazol-5-yl]ethenamine] | > 95
17 | CCC(NCc1ccc2c(c1)OCO2)=C1C(=O)NC(=O)N(C2CCCCC2)C1=O [(5E)-5-[1-(1,3-benzodioxol-5-ylmethylamino)propylidene]-1-cyclohexyl-1,3-diazinane-2,4,6-trione] | 6.81
18 | O=C(c1cc(-c2ccco2)on1)N1CCN(C(c2ccccc2)c2ccccc2)CC1 [(4-benzhydrylpiperazin-1-yl)-[5-(furan-2-yl)-1,2-oxazol-3-yl]methanone] | 6.75
19 | COc1cc(-c2noc(C3CCCN(S(=O)(=O)c4cccc(Cl)c4)C3)n2)cc(OC)c1OC (stereo unspecified) [1-(3-Chloro-benzenesulfonyl)-3-[3-(3,4,5-trimethoxy-phenyl)-[1,2,4]oxadiazol-5-yl]-piperidine] | 3.83
20 | Clc1ccc(OCc2nnc(-c3ccccc3Br)o2)c(Cl)c1 [2-(2-bromophenyl)-5-[(2,4-dichlorophenoxy)methyl]-1,3,4-oxadiazole] | > 95
21 | CCc1ccc(N(CC)c2ncnc3nc[nH]c23)cc1 | 6.03
22 | O=C(Nc1ccc(N2CCOCC2)c(Cl)c1)c1cccc(F)c1 [MLS000066209] | 1.23
23 | COc1ccc(NC(=O)c2cnn3c(C(F)(F)F)cc(-c4ccco4)nc23)cc1OC [MLS000109325] | > 95

Row | SMILES | EC50 [µM]
24 | COc1ccc(S(=O)(=O)N2CCN(c3ccc(C)cc3C)CC2)cc1OC [1-(3,4-dimethoxyphenyl)sulfonyl-4-(2,4-dimethylphenyl)piperazine] | 6.58
25 | CCOC(=O)c1cnc(-n2nc(C)cc2C)nc1NC1CCCCC1 [4-(cyclohexylamino)-2-(3,5-dimethyl-1-pyrazolyl)-5-pyrimidinecarboxylic acid ethyl ester] | 6.37
26 | C=C(C)COc1ccc(-c2nc(N)nc(C)c2Oc2ccccc2OC)c(O)c1 [(6E)-6-[2-amino-5-(2-methoxyphenoxy)-6-methyl-1H-pyrimidin-4-ylidene]-3-(2-methylallyloxy)cyclohexa-2,4-dien-1-one] | 3.8
27 | CCCC(=O)N1CCN(c2ccc(NC(=O)c3cc4ccccc4o3)cc2Cl)CC1 [MLS000096729] | 8.85
28 | O=C(Nc1cccc(C(F)(F)F)c1)N1CCC(c2nc(-c3ccc(F)cc3)no2)CC1 [4-[3-(4-Fluoro-phenyl)-[1,2,4]oxadiazol-5-yl]-piperidine-1-carboxylic acid (3-trifluoromethyl-phenyl)-amide] | 7.37
29 | COc1ccccc1-c1cc(C(=O)Nc2ccccc2SC)no1 [5-(2-methoxyphenyl)-N-(2-methylsulfanylphenyl)-1,2-oxazole-3-carboxamide] | 6.26
30 | COc1ccc(-c2nc3cc(NC(=O)Cc4ccc(OC)c(OC)c4)ccc3o2)cc1 [2-(3,4-dimethoxyphenyl)-N-[2-(4-methoxyphenyl)-1,3-benzoxazol-5-yl]acetamide] | 8.03
31 | CC1=NC(=O)NC(c2ccccc2)C1C(=O)OCc1ccc2c(c1)OCO2 (stereo unspecified) [1,3-benzodioxol-5-ylmethyl 6-methyl-2-oxidanylidene-4-phenyl-3,4-dihydro-1H-pyrimidine-5-carboxylate] | 1.84
32 | CC1Cc2ccccc2N1c1ncnc2nc[nH]c12 (stereo unspecified) [SMR000017649] | 3.78
33 | COC(=O)CS(=O)(=O)c1nnc([C@H](Cc2ccccc2)NC(=O)OC(C)(C)C)o1 [SMR000046685] | 6.99
34 | CC1(C)CC(=O)C(=CNc2ccc3[nH]ncc3c2)C(=O)C1 [SMR000111453] | 5.07
35 | Cc1cccc(OCCCCc2c(C)n[nH]c2C)c1C [SMR000103133] | 4.96
36 | O=C(C1CCCN1S(=O)(=O)c1cccc2cccnc12)N1CCN(c2ccccc2)CC1 (stereo unspecified) [(4-phenyl-1-piperazinyl)-[1-(8-quinolinylsulfonyl)-2-pyrrolidinyl]methanone] | > 95
37 | c1ccc2c(c1)oc1c(NCc3ccc4c(c3)OCO4)ncnc12 [MLS000057790] | 5.6
38 | Cc1ccc(NC(=O)c2cc(-c3ccco3)on2)cc1C [MLS000087214] | 4.99
39 | O=C(CSc1nnc(Cc2csc(Nc3cccc(Cl)c3)n2)o1)N1CCc2ccccc21 [2-[[5-[[2-(3-chloroanilino)-1,3-thiazol-4-yl]methyl]-1,3,4-oxadiazol-2-yl]sulfanyl]-1-(2,3-dihydroindol-1-yl)ethanone] | > 95
40 | Cc1ccc(OCc2nc(-c3ccccc3)no2)c(C)c1 [5-[(2,4-dimethylphenoxy)methyl]-3-phenyl-1,2,4-oxadiazole] | 2.66
41 | Cc1cc(NC(=O)c2oc3ccccc3c2C)ccc1-n1cnnn1 [3-Methyl-benzofuran-2-carboxylic acid (3-methyl-4-tetrazol-1-yl-phenyl)-amide] | 7.44
42 | O=S1(=O)C=C(Sc2nc3cc(Cl)ccc3o2)c2ccccc21 [SMR000019512] | > 30
43 | CC(Oc1ccccc1Br)C(=O)N1CCc2ccccc21 (stereo unspecified) [1-[2-(2-bromophenoxy)propanoyl]indoline] | 6.81
44 | COc1cc(C(=O)N2CCN(S(=O)(=O)c3ccc(C)cc3)CC2)ccc1OCc1c(C)noc1C [MLS000056221] | > 95
45 | Clc1ccc(CSc2nnc(-c3ccncc3)o2)cc1 [2-[(4-chlorobenzyl)thio]-5-(4-pyridyl)-1,3,4-oxadiazole] | 3.92

same assay, conditions: inactive by the depositor's call

Row | SMILES | EC50 [µM]
46 | Cc1cc(N2CCOCC2)nc(NCc2ccccc2)n1 [4-methyl-6-(4-morpholinyl)-N-(phenylmethyl)-2-pyrimidinamine] | 13.2
47 | COc1ccc(-n2c(C)c(C(C)=O)c3cc(O)ccc32)cc1 [1-[1-(4-methoxyphenyl)-2-methyl-5-oxidanyl-indol-3-yl]ethanone] | 15.6
48 | COc1ccc(OCCCSc2ncccn2)cc1 [2-[3-(4-methoxyphenoxy)propylsulfanyl]pyrimidine] | 57.3
49 | CCC(C)OC(=O)c1[nH]c2c(c1C)C(=O)CC(c1ccc(N(C)C)cc1)C2 (stereo unspecified) [MLS000116530] | 18.7
50 | COC(=O)c1ccc(CSc2nc3ccccc3c(=O)n2Cc2ccco2)o1 [5-[[[3-(2-furanylmethyl)-4-oxo-2-quinazolinyl]thio]methyl]-2-furancarboxylic acid methyl ester] | 18.8
51 | Nn1c(Nc2ccccc2)nc2sc3c(c2c1=O)CCC3 [2-amino-3-anilino-7,8-dihydro-6H-cyclopenta[2,3]thieno[2,4-b]pyrimidin-1-one] | 16.4
52 | COc1ccccc1-c1nc(-c2ccc(Br)cc2)no1 [3-(4-bromophenyl)-5-(2-methoxyphenyl)-1,2,4-oxadiazole] | 12
53 | Oc1c(C(c2ccco2)N2CCN(C(c3ccccc3)c3ccccc3)CC2)sc2ncnn12 (stereo unspecified) [5-[(4-benzhydrylpiperazin-1-yl)-(furan-2-yl)methyl]-[1,3]thiazolo[3,2-b][1,2,4]triazol-6-ol] | 15.9
54 | CCOC(=O)c1ccc(NC(=O)CCc2nc(-c3ccc(Cl)cc3)no2)cc1 [4-[3-[3-(4-chlorophenyl)-1,2,4-oxadiazol-5-yl]propanoylamino]benzoic acid ethyl ester] | 13.3
55 | Cc1cc(C)n(-c2nc3ccccc3c(=O)n2OCCOc2ccccc2)n1 [2-(3,5-dimethyl-1-pyrazolyl)-3-(2-phenoxyethoxy)-4-quinazolinone] | 20
56 | CCN(CC)C(=O)Oc1ccc2c(=O)c(-c3ccc(OC)cc3)coc2c1 [MLS000083046] | 12.9
